In US20120115827A1, “3-AMINOBENZAMIDE COMPOUNDS AND VANILLOID RECEPTOR SUBTYPE 1 (VR1) INHIBITORS” (Japan Tobacco Inc., priority 2004, published 2012):
Where a name gives a salt, the structure may show the parent alone.

Molecular target: T1, human VR1 (Homo sapiens, UniProt Q8NER1)
T1 construct: expressed in transfected cells
Experiment: Inhibition of Ca2+ entry in cells caused by proton (VR1 agonist)
Type: cell-based
Details: Rat glioma (C6BU1) cells stably expressing human VR1; proton stimulation to pH 5.5; Fura 2-AM fluorescence; read-out: In vitro IC50
Protocol: The assay for evaluation of VR1 inhibition by the inventive compounds will be described below. The assay was intended to evaluate in vitro inhibition of Ca^2+ entry in cells caused by proton, one of the VR1 agonists.
Rat glioma (C6BU1) cells stably expressing human VR1 were suspended in 20 mM MES buffer (at pH 6.8, contg. 20 mM 2-morpholinoethanesulfonate (referred to as MES hereinafter), 115 mM NaCl, 5 mM KCl, 1 mM MgCl2 and 14 mM D-glucose) to make a cell density of 1×10^6 cells/mL. A fluorescent dye, Fura 2-AM solution (Dojindo Corporate, Cat. No. 343-05401) was added to the suspension to make a 5 μM concentration thereof. Further, Pluronic F-127 (Wako Pure Chemical Industries, Ltd., Cat. No. P6866) was added to make a 0.1% content thereof. Then, the suspension was incubated at 37° C. for 30 min. The cells were harvested and washed three times with 20 mM MES buffer. The cells were suspended again to make a cell density of 5×10^5 cells/mL. A 500-μL portion of the suspension was taken with a cuvette (MC MEDICAL, INC., Cat. No. SSR3121), to which […] MES buffer containing 250 mM CaCl2 was added to incorporate Ca^2+ into the cells. At the same time, 5 μL of a test compound solution (in a range of 100 μM to 10 nM in DMSO) was also added to provide a final concentration thereof in a range of 1 μM to 0.1 nM. Alternatively, 5 μl of DMSO was added as control to provide a final concentration of 1% DMSO. The suspension was set in an intracellular ionometer (CAF-110; JASCO) 10 min after those additions. The cells were stimulated with protons by addition of 60 μL of 20 mM MES buffer at pH 1.1 to the suspension to set its pH at 5.5. The activity of the test compound was determined as a difference between the minimum of fluorescence intensity before agonist stimulation and its maximum after the stimulation. The value of IC50 was derived from percentage of inhibition by the test compound compared with the control.

T1 sequence (Q8NER1 whole entry): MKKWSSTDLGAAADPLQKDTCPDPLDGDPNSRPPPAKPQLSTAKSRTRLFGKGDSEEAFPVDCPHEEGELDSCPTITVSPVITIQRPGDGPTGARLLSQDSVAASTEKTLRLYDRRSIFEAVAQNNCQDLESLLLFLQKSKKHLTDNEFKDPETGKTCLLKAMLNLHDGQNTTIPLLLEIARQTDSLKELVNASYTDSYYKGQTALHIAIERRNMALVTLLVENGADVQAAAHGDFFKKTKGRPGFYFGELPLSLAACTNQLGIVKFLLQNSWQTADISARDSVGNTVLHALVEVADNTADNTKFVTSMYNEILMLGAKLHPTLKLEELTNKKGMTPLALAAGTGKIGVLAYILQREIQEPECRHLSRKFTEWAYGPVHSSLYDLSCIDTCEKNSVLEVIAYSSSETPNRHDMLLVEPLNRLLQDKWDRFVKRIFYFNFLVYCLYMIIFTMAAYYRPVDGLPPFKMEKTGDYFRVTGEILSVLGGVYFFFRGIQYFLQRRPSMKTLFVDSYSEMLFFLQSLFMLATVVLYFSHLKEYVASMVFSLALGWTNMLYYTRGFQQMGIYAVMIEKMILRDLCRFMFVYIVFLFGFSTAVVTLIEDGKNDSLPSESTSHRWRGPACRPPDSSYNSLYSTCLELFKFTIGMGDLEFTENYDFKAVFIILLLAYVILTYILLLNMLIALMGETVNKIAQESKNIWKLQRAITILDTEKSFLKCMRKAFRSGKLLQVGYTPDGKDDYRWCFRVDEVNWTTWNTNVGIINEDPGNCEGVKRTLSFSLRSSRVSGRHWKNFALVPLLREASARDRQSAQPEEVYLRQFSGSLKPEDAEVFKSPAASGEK

Row | IC50 [nM] | SMILES
1 | ≤ 100 | CC(C)(C)c1ccc(NC(=O)c2ccc(Cl)c(N(CCO)c3ncccc3Cl)c2)cc1 [Example 30, N-(4-tert-butylphenyl)-4-chloro-3-[N-(3-chloropyridin-2-yl)-N-(2-hydroxyethyl)amino]benzamide]
2 | ≤ 100 | CN(c1cc(C(=O)Nc2ccc(Cl)cc2)ccc1Cl)c1ncc(CO)cc1Cl [Example 80, 4-chloro-3-[N-(3-chloro-5-hydroxymethylpyridin-2-yl)-N-methyl-amino]-N-(4-chlorophenyl)-benzamide]
3 | 100 to 1000 | CN(c1cccc(C(=O)Nc2ccc(C(C)(C)C)cc2)c1)c1ccccn1 [Example 2, N-(4-tert-butylphenyl)-3-[N-(pyridin-2-yl)-N-methyl-amino]benzamide, hydrochloride salt]
4 | ≤ 100 | Cc1ccc(C(=O)Nc2ccc(C(C)(C)C)cc2)cc1N(C)c1ncccc1Cl [Example 7, N-(4-tert-butylphenyl)-3-[N-(3-chloropyridin-2-yl)-N-methyl-amino]-4-methylbenzamide]
5 | ≤ 100 | NC(=O)CN(c1ccc(Cl)cn1)c1cc(C(=O)Nc2ccc(C(F)(F)F)cc2)ccc1Cl [Example 70]
6 | ≤ 100 | NC(=O)CN(c1cc(C(=O)Nc2ccc(OC(F)(F)F)cc2)ccc1Cl)c1ncccc1Cl [Example 60, 4-chloro-3-[N-(3-chloropyridin-2-yl)-N-(carbamoylmethyl)amino]-N-(4-trifluoromethoxyphenyl)-benzamide]
7 | 100 to 1000 | CNC(=O)c1cnc(N(C)c2cc(C(=O)Nc3ccc(C(C)(C)C)cc3)ccc2Cl)c(Cl)c1 [Example 76, 6-{[5-(4-tert-butylphenylcarbamoyl)-2-chlorophenyl]-methyl-amino}-5-chloro-N-methylnicotinamide]
8 | ≤ 100 | CC(C)(C)c1ccc(NC(=O)c2ccc(Cl)c(N(CCCO)c3ncccc3Cl)c2)cc1 [Example 45, 4-chloro-3-[N-(3-chloropyridin-2-yl)-N-(3-hydroxypropyl)amino]-N-(4-tert-butylphenyl)-benzamide]
9 | ≤ 100 | COc1ccc(C(=O)Nc2ccc(C(C)(C)C)cc2)cc1N(c1ncccc1Cl)C(C)C [Example 11, N-(4-tert-butylphenyl)-3-[N-(3-chloropyridin-2-yl)-N-isopropyl]amino-4-methoxybenzamide]
10 | ≤ 100 | NC(=O)CN(c1cc(C(=O)Nc2ccc(C(F)(F)F)cc2)ccc1Cl)c1ncc(C(F)(F)F)cc1Cl [Example 68, 4-chloro-3-[N-(3-chloro-5-trifluoromethylpyridin-2-yl)-N-(carbamoylmethyl)amino]-N-(4-trifluoromethylphenyl)-benzamide]
11 | ≤ 100 | CNC(=O)COc1ccc(C(=O)Nc2ccc(C(C)(C)C)cc2)cc1N(C)c1ncccc1Cl [Example 21, N-(4-tert-butylphenyl)-3-[N-(3-chloropyridin-2-yl)-N-methyl-amino]-4-(N-methylcarbamoylmethyl)oxybenzamide]
12 | ≤ 100 | CN(c1cccc(C(=O)Nc2ccc(C(C)(C)C)cc2)c1)c1ccccc1Cl [Example 33, N-(4-tert-butylphenyl)-3-[N-(2-chlorophenyl)-N-methyl-amino]benzamide]
13 | ≤ 100 | CCN(c1cccc(C(=O)Nc2ccc(C(C)(C)C)cc2)c1)c1ncccc1Cl [Example 3, N-(4-tert-butylphenyl)-3-[N-(3-chloropyridin-2-yl)-N-ethyl-amino]benzamide]
14 | ≤ 100 | CNC(=O)c1cc(NC(=O)c2ccc(Cl)c(N(CCO)c3ncccc3Cl)c2)ccc1OCC(C)C [Example 55, 4-chloro-3-[N-(3-chloropyridin-2-yl)-N-(2-hydroxyethyl)amino]-N-(4-isobutyloxy-3-methylcarbamoylphenyl)-benzamide]
15 | ≤ 100 | Cc1c(C(=O)Nc2ccc(C(C)(C)C)cc2)cccc1N(C)c1ncccc1Cl [Example 6, N-(4-tert-butylphenyl)-3-[N-(3-chloropyridin-2-yl)-N-methyl-amino]-2-methylbenzamide]
16 | ≤ 100 | CN(c1cc(C(=O)Nc2ccc(C(C)(C)C)cc2)ccc1OCC(N)=O)c1ncccc1Cl [Example 20, N-(4-tert-butylphenyl)-4-carbamoylmethyloxy-3-[N-(3-chloropyridin-2-yl)-N-methyl-amino]benzamide]

Row | IC50 [nM] | SMILES
17 | ≤ 100 | COCCN(c1cc(C(=O)Nc2ccc(C(C)(C)C)cc2)ccc1Cl)c1ncccc1Cl [Example 29, N-(4-tert-butylphenyl)-4-chloro-3-[N-(3-chloropyridin-2-yl)-N-(2-methoxyethyl)amino]benzamide]
18 | ≤ 100 | CN(c1cc(C(=O)Nc2ccc(C(C)(C)C)cc2)ccc1Oc1ccccc1)c1ncccc1Cl [Example 5, N-(4-tert-butylphenyl)-3-[N-(3-chloropyridin-2-yl)-N-methyl]amino-4-phenoxybenzamide]
19 | ≤ 100 | NC(=O)CN(c1cc(C(=O)Nc2ccc(OC(F)(F)F)cc2)ccc1Cl)c1ncc(C(F)(F)F)cc1Cl [Example 67, 4-chloro-3-[N-(3-chloro-5-trifluoromethylpyridin-2-yl)-N-(carbamoylmethyl)amino]-N-(4-trifluoromethoxyphenyl)-benzamide]
20 | ≤ 100 | CN(c1cc(C(=O)Nc2ccc(C(F)(F)F)cc2)ccc1Cl)c1ncc(CO)cc1Cl [Example 79, 4-chloro-3-[N-(3-chloro-5-hydroxymethylpyridin-2-yl)-N-methyl-amino]-N-(4-trifluoromethylphenyl)-benzamide]
21 | ≤ 100 | O=C(Nc1ccc(C(F)(F)F)cc1)c1ccc(Cl)c(N(CCO)c2ncccc2Cl)c1 [Example 31, 4-chloro-3-[N-(3-chloropyridin-2-yl)-N-(2-hydroxyethyl)amino]-N-(4-trifluoromethylphenyl)-benzamide, hydrochloride salt]
22 | ≤ 100 | CC(C)(C)c1ccc(NC(=O)c2ccc(Cl)c(N(CC(N)=O)c3ncccc3Cl)c2)cc1 [Example 47, 4-chloro-3-[N-(3-chloropyridin-2-yl)-N-(carbamoylmethyl)amino]-N-(4-tert-butylphenyl)-benzamide]
23 | ≤ 100 | COc1ccc(C(=O)Nc2ccc(OCC(C)C)cc2)cc1N(CCO)c1ncccc1Cl [Example 50, 3-[N-(3-chloropyridin-2-yl)-N-(2-hydroxyethyl)amino]-N-(4-isobutyloxyphenyl)-4-methoxy-benzamide]
24 | 100 to 1000 | CN(c1ccccn1)c1cc(C(=O)Nc2ccc(C(C)(C)C)cc2)ccc1Cl [Example 13, N-(4-tert-butylphenyl)-4-chloro-3-[N-(pyridin-2-yl)-N-methyl-amino]benzamide]
25 | 100 to 1000 | CN(c1ccc(Cl)c(C(=O)Nc2ccc(C(C)(C)C)cc2)c1)c1ncccc1Cl [Example 24, N-(4-tert-butylphenyl)-2-chloro-5-[N-(3-chloropyridin-2-yl)-N-methyl]aminobenzamide]
26 | ≤ 100 | CNC(=O)CN(c1cc(C(=O)Nc2ccc(C(F)(F)F)cc2)ccc1Cl)c1ncccc1Cl [Example 66, 4-chloro-3-[N-(3-chloropyridin-2-yl)-N-(N-methylcarbamoylmethyl)amino]-N-(4-trifluoromethylphenyl)-benzamide]
27 | 100 to 1000 | CN(C)C(=O)CN(c1cc(C(=O)Nc2ccc(C(C)(C)C)cc2)ccc1Cl)c1ncccc1Cl [Example 49, 4-chloro-3-[N-(3-chloropyridin-2-yl)-N—(N,N-dimethylcarbamoylmethyl)amino]-N-(4-tert-butylphenyl)-benzamide]
28 | ≤ 100 | COCc1cnc(N(CC(N)=O)c2cc(C(=O)Nc3ccc(C(F)(F)F)cc3)ccc2Cl)c(Cl)c1 [Example 72, 4-chloro-3-[N-(3-chloro-5-methoxymethylpyridin-2-yl)-N-(carbamoylmethyl)amino]-N-(trifluoromethylphenyl)-benzamide]
29 | ≤ 100 | CC(C)COc1ccc(NC(=O)c2ccc(Cl)c(N(CC(N)=O)c3ncccc3Cl)c2)cc1 [Example 61, 4-chloro-3-[N-(3-chloropyridin-2-yl)-N-(carbamoylmethyl)amino]-N-(4-isobutyloxyphenyl)-benzamide]
30 | ≤ 100 | CN(c1cc(C(=O)Nc2ccc(C(C)(C)C)cc2)ccc1OCCO)c1ncccc1Cl [Example 18, N-(4-tert-butylphenyl)-3-[N-(3-chloropyridin-2-yl)-N-methyl-amino]-4-(2-hydroxyethyl)oxybenzamide]
31 | ≤ 100 | Cc1ccc(C(=O)Nc2ccc(C(F)(F)F)cc2)cc1N(CC(N)=O)c1ncccc1Cl [Example 63, 3-[N-(3-chloropyridin-2-yl)-N-(carbamoylmethyl)amino]-4-methyl-N-(4-trifluoromethylphenyl)-benzamide]
32 | ≤ 100 | O=C(Nc1ccc(Cl)cc1)c1ccc(Cl)c(N(CCO)c2ncccc2Cl)c1 [Example 36, 4-chloro-N-(4-chlorophenyl)-3-[N-(3-chloropyridin-2-yl)-N-(2-hydroxyethyl)amino]-benzamide]
